# Results taken from patent US8821898B2, “Active compound combinations having insecticidal and acaricidal properties” (Bayer CropScience AG, priority 2003, dated 2014).
# Columns and labels:
# Type in all cases: in vivo
# Myzus persicae = Myzus persicae test (dipped cabbage leaves); settings: 4 ppm
# Experimental: (§1) To produce a suitable preparation of active compound, 1 part by weight of active compound is mixed with the stated amounts of solvent and emulsifier, and the concentrate is diluted with emulsifier-containing water to the desired concentration.
# Cabbage leaves (Brassica oleracea) which are heavily infested by the green peach aphid (Myzus persicae) are treated by being dipped into the preparation of active compound of the desired concentration.
# After the desired period of time, the kill in % is determined. 100% means that all aphids have been killed; 0% means that none of the aphids have been killed. The determined kill rates are entered into Colby's formula (see on page 41).
# Spodoptera frugiperda = Spodoptera frugiperda test (dipped cabbage leaves)
# Experimental: as §1
# Cabbage leaves (Brassica oleracea) are treated by being dipped into the preparation of active compound of the desired concentration and are populated with caterpillars of the army worm (Spodoptera frugiperda) while the leaves are still moist.
# (§2) After the desired period of time, the kill in % is determined. 100% means that all caterpillars have been killed; 0% means that none of the caterpillars have been killed. The determined kill rates are entered into Colby's formula (see page 41).
# Aphis gossypii = Aphis gossypii test (dipped cotton leaves)
# Experimental: as §1
# Cotton leaves (Gossypium hirsutum) which are heavily infested by the cotton aphid (Aphis gossypii) are treated by being dipped into the preparation of active compound of the desired concentration.
# After the desired period of time; the kill in % is determined. 100% means that all aphids have been killed; 0% means that none of the aphids have been killed. The determined kill rates are entered into Colby's formula (see page 41).
# [1] = tested on: Plutella xylostella, resistant strain; experiment: Plutella xylostella test (resistant strain)
# Experimental: as §1
# Cabbage leaves (Brassica oleracea) are treated by being dipped into the preparation of active compound of the desired concentration and are populated with caterpillars of the diamondback moth (Plutella xylostella, resistant strain) while the leaves are still moist.
# as §2
# [2] = tested on: Phaedon cochleariae larvae; experiment: Phaedon cochleariae larvae test (dipped cabbage leaves)
# Experimental: as §1
# Cabbage leaves (Brassica oleracea) are treated by being dipped into the preparation of active compound of the desired concentration and are populated with larvae of the mustard beetle (Phaedon cochleariae) while the leaves are still moist.
# After the desired period of time, the kill in % is determined. 100% means that all beetle larvae have been killed; 0% means that none of the beetle larvae have been killed. The determined kill rates are entered into Colby's formula (see page 41).
compound,measurement,setting,value
"N#CCNC(=O)c1cnccc1C(F)(F)F [(2-6) flonicamid, flonicamid, reference compound]","Kill rate in % after 6d, found",Myzus persicae; Table B2,40%
same,"Kill rate in % after 3d, found",Spodoptera frugiperda; 100 ppm,5%
same,"Kill rate in % after 6d, found",Aphis gossypii; 20 ppm,40%
Cc1cc(Cl)cc(C(=O)NC(C)C)c1NC(=O)c1cc(C(F)(F)F)nn1-c1ncccc1Cl [II-1-9],"Kill rate in % after 6d, found",[1]; 0.0064 ppm,0%
same,"Kill rate in % after 6d, found",Myzus persicae; Table B1,30%
same,"Kill rate in % after 6d, found",Myzus persicae; Table B2,0%
same,"Kill rate in % after 3d, found",Spodoptera frugiperda; 0.16 ppm,45%
same,"Kill rate in % after 7d, found",Aphis gossypii; 4 ppm,20%
same,"Kill rate in % after 6d, found",Aphis gossypii; 20 ppm,55%
same,"Kill rate in % after 3d, found",[2]; 0.16 ppm,5%
same,"Kill rate in % after 6d, found",[2]; 0.16 ppm,0%
"CC(C)N1C(=O)N(c2ccccc2)CS/C1=N\C(C)(C)C [(2-2) buprofezin, buprofezin, reference compound]","Kill rate in % after 7d, found",Aphis gossypii; 20 ppm,0%
same,"Kill rate in % after 3d, found",[2]; 100 ppm,20%
CCOC(=O)OC1=C(c2cc(C)ccc2C)C(=O)NC12CCC(OC)CC2 (stereo not shown) [I-a-4],"Kill rate in % after 6d, found",[1]; 0.16 ppm,0%
same,"Kill rate in % after 6d, found",Myzus persicae; Table B1,80%
same,"Kill rate in % after 6d, found",[2]; 4 ppm,15%
